Measurements published in article PMC12118597 (Science Advances, 2025).

Target: SARS-CoV-2 NSP3 macrodomain (Mac1) (Severe acute respiratory syndrome coronavirus 2, UniProt P0DTD1)
Assay: biochemical
Assay type: binding
Details: not given

Compound	Average % competition	Ki
Cc1nc2cc(NC(=O)C3CC(=O)Nc4ccccc43)ccc2o1 (stereo not drawn) [AVI-292]	0%	
O=C(O)c1ccc2c(c1)C(NC(=O)C1CCn3ncnc3C1)CCC2 (stereo not drawn) [AVI-333]	21%	
O=C(O)C1CCc2nnc(-c3ccc(F)cc3)n2C1 (stereo not drawn) [AVI-326]	15%	
CNC(=O)c1ccc(NC(=O)C2CC(=O)Nc3ccccc32)cc1 (stereo not drawn) [AVI-305]	0%	
CC(C(=O)NCc1c(C(=O)O)[nH]c2ccccc12)n1cncn1 (stereo not drawn) [AVI-337]	14%	
O=C(O)C1CN(C(=O)c2ccc3n[nH]nc3c2)c2ccccc21 (stereo not drawn) [AVI-319]	25%	
CC(=O)Nc1ccc(S(=O)(=O)CCCN2C(=O)CC(C)(C(C)C)C2=O)cc1 (stereo not drawn) [AVI-299]	19%	
Cc1c[nH]c2ncnc(NCC3(O)CCCCC3)c12 [AVI-3761, 1-(((5-methyl-7H-pyrrolo[2,3-d]pyrimidin-4-yl)amino)methyl)cyclohexan-1-ol]		12 µM
Nc1ncnc(N2CCC(C(F)(F)F)C3(CCC3)C2)c1Cl (stereo not drawn) [AVI-324]	<10%	
O=C1CC(C(=O)Nc2nc3c(s2)CCCC3)c2ccccc2N1 (stereo not drawn) [AVI-307]	0%	
N#Cc1cnc(CSc2nc(-c3ccccc3)co2)nc1N [AVI-332]	<10%	
Cc1ccc(N2CCN(c3ncnc(-c4ccccc4)n3)CC2=O)cc1 [AVI-336]	<10%	
c1ccn2c(Sc3ncnc4ccsc34)nnc2c1 [AVI-308]	0%	
CC(NC(=O)c1ccc(N)nc1Cl)C(O)c1cccc(F)c1 (stereo not drawn) [AVI-349]	15%	
O=C(O)C1CN(C(=O)c2ccc3c(c2)OCCO3)CCO1 (stereo not drawn) [AVI-323]	7%	
CC1CN(C(=O)c2ccccc2S(C)(=O)=O)c2cccnc2O1 (stereo not drawn) [AVI-294]	13%	

Compound	Average % competition	Ki
CC(OC(=O)c1ccc2nc(N)sc2c1)C(=O)N1CCCCCC1 (stereo not drawn) [AVI-304]	0%	
Cc1ccc2c(c1)C(=O)N(CCC(=O)Nc1cnc3c(c1)c(C)nn3C)C2=O [AVI-301]	16%	
O=C(NCCCN1C(=O)NC2(CCCC2)C1=O)c1ccc(=O)[nH]c1 [AVI-300]	8%	
NC(=O)N1CCC[C@H]1C(=O)Nc1ccc2ncnn2c1 [AVI-330]	14%	
CCCC1CCCC1C(=O)N[C@H]1CCc2nc(N)sc2C1 (stereo partly drawn) [AVI-298]	<10%	
CCOc1ccc(-c2nc(CC(=O)N3CCn4cccc4C3C)cs2)cc1 (stereo not drawn) [AVI-325]	0%	
CC1CCCC1OC(=O)Cn1cnc2c1c(=O)n(C)c(=O)n2C (stereo not drawn) [AVI-335]	<10%	
Cc1noc(NCc2cc3ccccc3[nH]c2=O)n1 [AVI-322]	0%	
CNS(=O)(=O)c1cc(C(=O)N2CCOc3ccccc32)n(C)c1 [AVI-309]	0%	
Cc1nnc2n1CCN(C(=O)CN1C(=O)CCOc3ccccc31)C2 [AVI-302]	0%	
Cc1ccc(CC(=O)N2CCSC23CC(C(=O)O)C3)cc1O (stereo not drawn) [AVI-347]	<10%	
Cn1ccc2cc(NC(=O)C3CC(=O)NC4CCCCC43)ccc21 (stereo not drawn) [AVI-342]	<10%	
Cc1ccc(C)c(CN2C(=O)NC(C)(Cc3ccc4c(c3)OCO4)C2=O)c1 (stereo not drawn) [AVI-320]	18%	
Nc1ncnc2sc3c(c12)CCN(C(=O)[C@H]1CC=CCC1)C3 [AVI-331]	<10%	
O=C(c1cc(C2CCCCC2)[nH]n1)N1CCCC(O)(C(F)(F)F)CC1 (stereo not drawn) [AVI-318]	13%	
Cc1nc(N)ncc1C(=O)NCC(O)Cc1ccc(Cl)cc1 (stereo not drawn) [AVI-343]	<10%	

Same assay, conditions: HTRF

Compound	fold decrease in affinity relative to AVI-607
CC(O)C1CCCN1c1ncnc2[nH]ccc12 (stereo not drawn) [AVI-4062]	~ 10 fold

Same assay, conditions: SARS CoV-2 macrodomain HTRF assay

Compound	Ki	Ligand efficiency (binding enery per heavy atom)
OC1(CNc2ncnc3[nH]ccc23)CCSCC1 [AVI-4319]	160 µM	0.29
CN(CC1(O)CCOCC1)c1ncnc2[nH]ccc12 [AVI-4318]	66 µM	0.30
OCC1C=CCCN1c1ncnc2[nH]ccc12 (stereo not drawn) [AVI-5998]	150 µM	0.31
OC1(CNc2ncnc3[nH]ccc23)COC2CC1C2 (stereo not drawn) [AVI-4313]	120 µM	0.29
OC1(CNc2ncnc3[nH]ccc23)CCCSC1 (stereo not drawn) [AVI-4322]	49 µM	0.33
C[C@H]1CC[C@H](CO)N(c2ncnc3[nH]ccc23)C1 [AVI-4063]	52 µM	0.33
OCC1CCC2(CCOCC2)CN1c1ncnc2[nH]ccc12 (stereo not drawn) [AVI-4065]	400 µM	0.21
OC1(CNc2ncnc3[nH]ccc23)CCOCC1 [AVI-4314]	210 µM	0.28
OC1(CNc2ncnc3[nH]ccc23)CCCOC1 (stereo not drawn) [AVI-4311]	160 µM	0.29
OCC1CC=CCN1c1ncnc2[nH]ccc12 (stereo not drawn) [AVI-6002]	48 µM	0.35
O=S1(=O)CCCC(O)(CNc2ncnc3[nH]ccc23)C1 (stereo not drawn) [AVI-4317]	100 µM	0.28
CC(Nc1ncnc2[nH]ccc12)C1(O)CCCCC1 (stereo not drawn) [AVI-4321]	45 µM	0.32
OC1(CNc2ncnc3[nH]ccc23)CCCC(C(F)(F)F)C1 (stereo not drawn) [AVI-4309]	140 µM	0.24
Cc1c[nH]c2ncnc(NCC3(O)CCOCC3)c12 [AVI-4194, 4-(((5-methyl-7H-pyrrolo[2,3-d]pyrimidin-4-yl)amino)methyl)tetrahydro-2H-pyran-4-ol]	150 µM	0.28
OC1(CNc2ncnc3[nH]ccc23)CCCCC1 [AVI-6217]	39 µM	0.34
CC(O)C1CCCN1c1ncnc2[nH]ccc12 (stereo not drawn) [AVI-4062]	51 µM	0.35
OC1(CNc2ncnc3[nH]ccc23)CC2CCC1CC2 (stereo not drawn) [AVI-4320]	77 µM	0.28
Cc1c[nH]c2ncnc(NCC3(O)CCC(C)(C)CC3)c12 [AVI-4330]	610 µM	0.21
Cc1c[nH]c2ncnc(NCC3(O)CCSCC3)c12 [AVI-4195, 4-(((5-methyl-7H-pyrrolo[2,3-d]pyrimidin-4-yl)amino)methyl)tetrahydro-2H-thiopyran-4-ol]	48 µM	0.31

Same assay, conditions: SARS CoV-2 macrodomain HTRF assay, dose-response; read-out: IC50

Compound	IC50
OC1(CNc2ncnc3[nH]ccc23)CCSCC1 [AVI-4319]	170 µM
CN(CC1(O)CCOCC1)c1ncnc2[nH]ccc12 [AVI-4318]	71 µM
OCC1C=CCCN1c1ncnc2[nH]ccc12 (stereo not drawn) [AVI-5998]	160 µM
OC1(CNc2ncnc3[nH]ccc23)COC2CC1C2 (stereo not drawn) [AVI-4313]	130 µM
OC1(CNc2ncnc3[nH]ccc23)CCCSC1 (stereo not drawn) [AVI-4322]	53 µM
C[C@H]1CC[C@H](CO)N(c2ncnc3[nH]ccc23)C1 [AVI-4063]	56 µM
OCC1CCC2(CCOCC2)CN1c1ncnc2[nH]ccc12 (stereo not drawn) [AVI-4065]	430 µM
OC1(CNc2ncnc3[nH]ccc23)CCOCC1 [AVI-4314]	230 µM
OC1(CNc2ncnc3[nH]ccc23)CCCOC1 (stereo not drawn) [AVI-4311]	170 µM
OCC1CC=CCN1c1ncnc2[nH]ccc12 (stereo not drawn) [AVI-6002]	52 µM
CC(Nc1ncnc2[nH]ccc12)C1(O)CCCCC1 (stereo not drawn) [AVI-4321]	48 µM
OC1(CNc2ncnc3[nH]ccc23)CCCC(C(F)(F)F)C1 (stereo not drawn) [AVI-4309]	150 µM
Cc1c[nH]c2ncnc(NCC3(O)CCOCC3)c12 [AVI-4194, 4-(((5-methyl-7H-pyrrolo[2,3-d]pyrimidin-4-yl)amino)methyl)tetrahydro-2H-pyran-4-ol]	160 µM
OC1(CNc2ncnc3[nH]ccc23)CCCCC1 [AVI-6217]	42 µM
OC1(CNc2ncnc3[nH]ccc23)CC2CCC1CC2 (stereo not drawn) [AVI-4320]	83 µM
Cc1c[nH]c2ncnc(NCC3(O)CCC(C)(C)CC3)c12 [AVI-4330]	650 µM
Cc1c[nH]c2ncnc(NCC3(O)CCSCC3)c12 [AVI-4195, 4-(((5-methyl-7H-pyrrolo[2,3-d]pyrimidin-4-yl)amino)methyl)tetrahydro-2H-thiopyran-4-ol]	52 µM

Same assay, conditions: SARS CoV-2 macrodomain HTRF assay, single dose concentration 200 μM

Compound	Average % competition
CN(C)C[C@@]1(O)CCCN(c2ncnc3[nH]ccc23)C1 [AVI-614]	<10%
O[C@@]1(Cn2ccnn2)CCCN(c2ncnc3[nH]ccc23)C1 [AVI-608]	8%

Same assay, conditions: SARS CoV-2 macrodomain HTRF assay, single dose concentration 200 μM; read-out: Average % competition

Compound	inhibition at 200 µM
CC(C)C1CCCN1c1ncnc2[nH]ccc12 (stereo not drawn) [AVI-5216]	35%
O=C(O)C(F)(F)F.OCC1C2C=CC(C2)N1c1ncnc2[nH]ccc12 (stereo not drawn) [AVI-3712]	55%

Same assay, conditions: Single dose, concentration 200 μM

Compound	Average % competition
O=C(O)C(F)(F)F.OCC(CC1CCOCC1)Nc1ncnc2[nH]ccc12 (stereo not drawn) [AVI-3676]	<10%
OCC1(Nc2ncnc3[nH]ccc23)COC1 [AVI-5649]	<10%
CC(C)CCC(CO)Nc1ncnc2[nH]ccc12.O=C(O)C(F)(F)F (stereo not drawn) [AVI-3668]	38%
O=C(O)C(F)(F)F.OCC(Nc1ncnc2[nH]ccc12)C1CCCO1 (stereo not drawn) [AVI-3645]	54%
CC(C)(C)C(O)CC(CO)Nc1ncnc2[nH]ccc12.O=C(O)C(F)(F)F (stereo not drawn) [AVI-3714]	<10%
OC1CC(Cn2ccnc2)CC1Nc1ncnc2[nH]ccc12 (stereo not drawn) [AVI-3725]	29%
O=C(O)C(F)(F)F.OC[C@@H](CCc1ccccc1)Nc1ncnc2[nH]ccc12 [AVI-3654]	27%
O=C(O)C(F)(F)F.O=[N+]([O-])c1ccc(C(O)C(CO)Nc2ncnc3[nH]ccc23)cc1 (stereo not drawn) [AVI-3672]	43%
O[C@@H]1CNCC[C@H]1Nc1ncnc2[nH]ccc12 [AVI-613]	<10%
O=C(O)C(F)(F)F.OC1c2ccccc2CC1Nc1ncnc2[nH]ccc12 (stereo not drawn) [AVI-3634]	<10%

Same assay, conditions: compound at 200 μM; mean of three to four technical replicates; read-out: % competition at 200 μM (preliminary HTRF screen)

Compound	inhibition at 200 µM
CN(C)C[C@@]1(O)CCCN(c2ncnc3[nH]ccc23)C1 [AVI-614]	< 10%
O=C(O)C(F)(F)F.OCC(CC1CCOCC1)Nc1ncnc2[nH]ccc12 (stereo not drawn) [AVI-3676]	< 10%
O[C@@]1(Cn2ccnn2)CCCN(c2ncnc3[nH]ccc23)C1 [AVI-608]	< 10%
OCC1(Nc2ncnc3[nH]ccc23)COC1 [AVI-5649]	< 10%
CC(C)CCC(CO)Nc1ncnc2[nH]ccc12.O=C(O)C(F)(F)F (stereo not drawn) [AVI-3668]	38%
CC(C)C1CCCN1c1ncnc2[nH]ccc12 (stereo not drawn) [AVI-5216]	35%
O=C(O)C(F)(F)F.OCC(Nc1ncnc2[nH]ccc12)C1CCCO1 (stereo not drawn) [AVI-3645]	54%
CNc1ccc(NS(=O)(=O)c2cc3cccc(C)c3s2)cn1 [AVI-345]	18%
CC(C)(C)C(O)CC(CO)Nc1ncnc2[nH]ccc12.O=C(O)C(F)(F)F (stereo not drawn) [AVI-3714]	< 10%
O=C(O)C(F)(F)F.OCC1C2C=CC(C2)N1c1ncnc2[nH]ccc12 (stereo not drawn) [AVI-3712]	55%
OC1CC(Cn2ccnc2)CC1Nc1ncnc2[nH]ccc12 (stereo not drawn) [AVI-3725]	29%
O=C(O)C(F)(F)F.OC[C@@H](CCc1ccccc1)Nc1ncnc2[nH]ccc12 [AVI-3654]	27%
O=C(O)C(F)(F)F.O=[N+]([O-])c1ccc(C(O)C(CO)Nc2ncnc3[nH]ccc23)cc1 (stereo not drawn) [AVI-3672]	43%
O[C@@H]1CNCC[C@H]1Nc1ncnc2[nH]ccc12 [AVI-613]	< 10%
O=C(O)C(F)(F)F.OC1c2ccccc2CC1Nc1ncnc2[nH]ccc12 (stereo not drawn) [AVI-3634]	< 10%

Same assay, conditions: dose-response; read-out: IC50

Compound	IC50
Cc1nc(-c2cccc(NC(=O)NCc3cccs3)c2)n[nH]1 [AVI-306]	> 1000 µM
O=C(O)C1CN(C(=O)c2cccc3[nH]ccc23)c2ccccc21 (stereo not drawn) [AVI-314]	> 1000 µM
Nc1cc(N2CCC3CCCCC3C2)ncn1 (stereo not drawn) [AVI-339]	> 1000 µM
O=c1[nH]c2ccccc2cc1CNc1nc(C2CC2)ns1 [AVI-346]	> 1000 µM

Same assay, conditions: read-out: IC50

Compound	IC50
Nc1cccc(CSC2CCc3ccccc32)n1 (stereo not drawn) [AVI-6015]	> 1000 µM
Nc1ncnc(N2CCCCC3(CCC3)C2)c1Cl [AVI-6017]	> 1000 µM

Same assay, conditions: read-out: IC50 (confirmatory HTRF dose-response screen)

Compound	IC50
Cc1c[nH]c2ncnc(NCC3(O)CCCCC3)c12 [AVI-3761, 1-(((5-methyl-7H-pyrrolo[2,3-d]pyrimidin-4-yl)amino)methyl)cyclohexan-1-ol]	13 µM
O=S1(=O)CCCC(O)(CNc2ncnc3[nH]ccc23)C1 (stereo not drawn) [AVI-4317]	110 µM
CC(O)C1CCCN1c1ncnc2[nH]ccc12 (stereo not drawn) [AVI-4062]	55 µM

Same assay, conditions: single dose concentration 200 μM (TS-FrankenROCS series)

Compound	Average % competition
CNc1ccc(NS(=O)(=O)c2cc3cccc(C)c3s2)cn1 [AVI-345]	18%
Nc1cc(N2CCC3CCCCC3C2)ncn1 (stereo not drawn) [AVI-339]	<10%
O=c1[nH]c2ccccc2cc1CNc1nc(C2CC2)ns1 [AVI-346]	<10%
